According to patent publication US3997506A (priority 1974, dated 1976):
“And” between values parts separate entries of the source, which are not always exact repeats. Equal values may be shown once. Read-outs that look alike come from different tables or passages of the source.

Key:
leucocytes from rats [1] = conditions: individual rat, 2 mg/kg oral
Description: (§1) These rats had been kept fasting from the evening before.
Two groups of rats served as references.
The first group consisted of rats which were given no substance. The second group consisted of rats which were given a same volume (7.5 ml/kg) of propylene glycol as that received by the treated animals.
(§2) During this experimentation a counting of the leucocytes as well as a leucocytic distribution were made before administration and 6 hours after administration of the substances. Moreover as a cytoxicity index, a measurement of the viability of leucocytes obtained 6 hours after administration was carried out by means of the staining test with Trypan blue.

leucocytes from rats [2] = conditions: individual rat, 2 mg/kg oral; remark: listed apart in the source
Description: as §1, §2

leucocytes from rats [3] = conditions: 6 hours after administration, 2 mg/kg oral
Description: as §1, §2

in vitro = conditions: human, leucocytes, % of dead cells (Average of 2 determinations), no PHA
Description: The concentrations of colchicine and of the derivative were prepared through dilution of a concentrated solution in order to add a same volume of methanol to each culture.
The doses were the following:
C1 = 0.01 μg/ml of culture
C2 = 0.1 μg/ml of culture
C3 = 0.5 μg/ml of culture
C4 = 1.0 μg/ml of culture
C5 = 2.5 μg/ml of culture
C6 = 10.0 μg/ml of culture.
Samples of culture with or without addition of methanol served as references.

[4] = system: phagocytosis by peritoneal macrophages of mice; format: cell-based; conditions: for % phagocytosis with respect to controls (= 100%): 80 min
Description: The macrophages the proliferation of which in the animal has been previously stimulated in vivo by an intraperitoneal injection of proteose-peptone (Difco) are collected or gathered in a sterile manner by washing the peritoneal cavity. They are then suspended in a culture medium consisting of a basal Eagle medium (B-D Merieux) admixed with 20 % of serum of foetal calf (Flow Laboratories) and with 100 U/ml of penicillin and of 50 μg/ml of streptomicin. They are distributed at the rate of 5×10^6 cells per dish into Petri Falcon dishes of 35 mm in diameter wherein they will form a monocellular layer. They are cultivated at 37° C in a water-saturated atmosphere of air and of 5 % carbon dioxide CO2.
For the measurement of phagocytosis 48 hours cultures (experiments I, II, IV) or 72 hours cultures (experiments II, V) have been used. […] The volume of methanol added to each culture was equal to 10 μl except for experiment I (25 μl).

leucocytes from rats [5] = format: in vivo, Sprague Dawley SIV 50 he-rats; conditions: 2 mg/kg oral
Description: Blood (about 0.2 ml) obtained through puncture of the retro-orbital veinous sinus was collected under sterile conditions prior to the administration of the substances and 6 hours later.
Then one proceeded with carrying out a micro-culture of the leucocytes in the presence of phytohemagglutinin.

[6] = system: Sprague Dawley SIV 50 rat; format: in vivo, male and female Sprague Dawley SIV 50 rat; conditions: for Death rate: 10 days
Excerpt: The high toxicity of the new derivative of colchicine (N-desacetyl-N-adamantoyl-thiocolchicine) has been investigated through the oral way with the male and female Sprague Dawley SIV 50 rat having an average weight of 100 g.
Two experiments have been carried out. In the first one, only the high toxicity of the derivative has been studied; in the second one, the high toxicity of the derivative has been compared with that of colchicine.
The derivative and colchicine have been administered in suspension in propylene glycol through an oesophageal tube at the rate of 2 ml per rat for the first experiment and of 1 ml for the second one.
The animals have been observed for 10 days.

[7] = 6 hours after administration, individual rat, 2 mg/kg
[8] = before administration, individual rat, 2 mg/kg

Description for human leucocytes: Contrary to the previous experiment in which different volumes of a solution of a given concentration have been added, in this experiment the various concentrations were prepared through dilution of a concentrated solution in order to add a same volume of methanol to each culture.

COc1cc2c(c(OC)c1OC)-c1ccc(SC)c(=O)cc1C(NC(=O)C13CC4CC(CC(C4)C1)C3)CC2 (single isomer, unassigned) [Derivative, N-desacetyl-N-adamantoyl-thiocolchicine]
Leucocytes / mm^3 (leucocytes from rats [1]; experiment 1, 6 hours after administration, 2 mg/kg): 9,050 / mm^3 and 8,450 / mm^3 and 9,350 / mm^3 | Leucocytes / mm^3 (leucocytes from rats [1]; experiment 1, before administration, 2 mg/kg): 9,050 / mm^3 and 12,250 / mm^3 and 17,525 / mm^3 | Leucocytes / mm^3 (leucocytes from rats [1]; experiment 2, 6 hours after administration): 5,400 / mm^3 | Leucocytes / mm^3 (leucocytes from rats [1]; experiment 2, before administration, 2 mg/kg): 5,900 / mm^3 and 9,350 / mm^3 | Leucocytes / mm^3 (leucocytes from rats [1]; experiment 3, 6 hours after administration): 13,500 / mm^3 | Leucocytes / mm^3 (leucocytes from rats [1]; experiment 3, before administration, 2 mg/kg): 13,250 / mm^3 and 7,200 / mm^3 | Basophils (leucocytes from rats [2]; 6 hours after administration): 0 | Eosinophils (leucocytes from rats [2]; 6 hours after administration): 0 | Lymphocytes (leucocytes from rats [2]; 6 hours after administration, 2 mg/kg): 94 and 82 and 86 | Basophils (leucocytes from rats [2]; before administration): 0 | Eosinophils (leucocytes from rats [2]; before administration): 0 | Lymphocytes (leucocytes from rats [2]; before administration, 2 mg/kg): 84 and 90 and 82 | Monocytes (leucocytes from rats [2]; before administration, 2 mg/kg): 2 and 1 | Neutrophils with segmented nucleus (leucocytes from rats [2]; before administration, 2 mg/kg): 12 and 8 | cytotoxic effect (in words) (leucocytes from rats [3]): no cytotoxic effect has been noticed | % of dead cells (leucocytes from rats [3]; individual rat, 2 mg/kg, 360 min): 2% and 1% and 0% | number of leucocytes with increasing amounts (in words) (human leucocytes; Table 9, 72 hours): still further lowered with the same amounts of the derivative | Count of leucocytes after 72 hours (human leucocytes; Table 9, C1 = 2.5 μg/ml, control 412,500): 487,000 | Count of leucocytes after 72 hours (human leucocytes; Table 9, C3 = 10 μg/ml, control 412,500): 360,000 | Count of leucocytes after 72 hours (human leucocytes; Table 9, C5 = 30 μg/ml, control 412,500): 180,000 | Count of leucocytes after 72 hours (human leucocytes; Table 9, C6 = 50 μg/ml, control 412,500): 157,000 | Count of leucocytes after 72 hours (human leucocytes; Table 11, Culture I, C3 = 10 μg/ml): 430,000 | Count of leucocytes after 72 hours (human leucocytes; Table 11, Culture I, C6 = 50 μg/ml): 515,000 | Count of leucocytes after 72 hours (human leucocytes; Table 11, Culture II, C1 = 2.5 μg/ml): 140,000 | Count of leucocytes after 72 hours (human leucocytes; Table 11, Culture II, C3 = 10 μg/ml): 200,000 | Count of leucocytes after 72 hours (human leucocytes; Table 11, Culture II, C5 = 30 μg/ml): 245,000 | Count of leucocytes after 72 hours (human leucocytes; Table 11, Culture II, C6 = 50 μg/ml (two values given)): 290,000 and 345,000 | number of leucocytes in absence or presence of substance (in words) (human leucocytes; Table 11, very approximative): remain substantially the same | cytotoxicity at 6 h (in vitro; C1 = 0.01 μg/ml): 1% | cytotoxicity at 6 h (in vitro; C2 = 0.1 μg/ml): 1% | cytotoxicity at 6 h (in vitro; C3 = 0.5 μg/ml): 0% | cytotoxicity at 6 h (in vitro; C4 = 1.0 μg/ml): 1% | cytotoxicity at 6 h (in vitro; C5 = 2.5 μg/ml): 1% | cytotoxicity at 6 h (in vitro; C6 = 10.0 μg/ml): 1% | cytotoxicity at 30 h (in vitro; C1 = 0.01 μg/ml): 64% | cytotoxicity at 30 h (in vitro; C2 = 0.1 μg/ml): 54% | cytotoxicity at 30 h (in vitro; C3 = 0.5 μg/ml): 50% | cytotoxicity at 30 h (in vitro; C4 = 1.0 μg/ml): 49% | cytotoxicity at 30 h (in vitro; C5 = 2.5 μg/ml): 45% | cytotoxicity at 30 h (in vitro; C6 = 10.0 μg/ml): 67% | cytotoxicity at 48 h (in vitro; C1 = 0.01 μg/ml): 93% | cytotoxicity at 48 h (in vitro; C2 = 0.1 μg/ml): 95% | cytotoxicity at 48 h (in vitro; C3 = 0.5 μg/ml): 91% | cytotoxicity at 48 h (in vitro; C4 = 1.0 μg/ml): 94% | cytotoxicity at 48 h (in vitro; C5 = 2.5 μg/ml): 88% | cytotoxicity at 48 h (in vitro; C6 = 10.0 μg/ml): 91% | inhibition of phagocytosis ([4]; 0.004 μg): 10% | % phagocytosis with respect to controls (= 100%) ([4]; 0.004 μg, Experimentation III): 93.8% | % phagocytosis with respect to controls (= 100%) ([4]; 0.004 μg, Experimentation IV): 85.8% | % phagocytosis with respect to controls (= 100%) ([4]; 0.04 μg, Experimentation III): 84.5% | % phagocytosis with respect to controls (= 100%) ([4]; 0.04 μg, Experimentation IV): 85.9% | % phagocytosis with respect to controls (= 100%) ([4]; 0.04 μg, Experimentation V): 89.9% | % phagocytosis with respect to controls (= 100%) ([4]; 0.4 μg, Experimentation III): 72.8% | % phagocytosis with respect to controls (= 100%) ([4]; 0.4 μg, Experimentation IV): 77.6% | % phagocytosis with respect to controls (= 100%) ([4]; 0.4 μg, Experimentation V): 76.2% | inhibition of phagocytosis ([4]; 4 μg): 65% | % phagocytosis with respect to controls (= 100%) ([4]; 4 μg, Experimentation II): 22.5% | % phagocytosis with respect to controls (= 100%) ([4]; 4 μg, Experimentation III): 33.1% | % phagocytosis with respect to controls (= 100%) ([4]; 4 μg, Experimentation IV): 42.5% | % phagocytosis with respect to controls (= 100%) ([4]; 4 μg, Experimentation V): 39.3% | % phagocytosis with respect to controls (= 100%) ([4]; 5 μg, Experimentation II): 25.9% | % phagocytosis with respect to controls (= 100%) ([4]; 10 μg, Experimentation II): 25.5% | % phagocytosis with respect to controls (= 100%) ([4]; 12.5 μg, Experimentation I): 46.2% | % phagocytosis with respect to controls (= 100%) ([4]; 20 μg, Experimentation II): 31.3% | % phagocytosis with respect to controls (= 100%) ([4]; 30 μg, Experimentation II): 31.1% | % phagocytosis with respect to controls (= 100%) ([4]; 40 μg, Experimentation II): 31.0% | % phagocytosis with respect to controls (= 100%) ([4]; 40 μg, Experimentation III): 43.7% | % phagocytosis with respect to controls (= 100%) ([4]; 40 μg, Experimentation IV): 48.4% | inhibition of phagocytosis of the red blood-corpuscles by the macrophages (in words) ([4]; compared with colchicine): will inhibit phagocytosis of the red blood-corpuscles by the macrophages nearly as colchicine would do | embodied radioactivity, mean (leucocytes from rats [5]; 6 hours after administration, group mean): 10,664±2,087 cpm | cpm / number of lymphocytes, mean (leucocytes from rats [5]; 6 hours after administration, group mean, factor and spread printed on following lines): 4.71 × 10^-^2 cpm/number of lymphoc | Number of lymphocytes/culture (leucocytes from rats [5]; [7]): 172,500 lymphocytes/culture and 244,760 lymphocytes/culture and 261,900 lymphocytes/culture | embodied radioactivity (leucocytes from rats [5]; [7]): 8,466 cpm and 8,690 cpm and 14,836 cpm | cpm / number of lymphocytes (immunity response) (leucocytes from rats [5]; 6 hours after administration, individual rat, factor × 10^-^2, 2 mg/kg): 4.91 × 10^-^2 cpm/number of lymphoc and 3.55 × 10^-^2 cpm/number of lymphoc and 5.66 × 10^-^2 cpm/number of lymphoc | embodied radioactivity, mean (leucocytes from rats [5]; before administration, group mean): 12,227±2,228 cpm | Number of lymphocytes/culture (leucocytes from rats [5]; [8]): 132,480 lymphocytes/culture and 147,000 lymphocytes/culture and 271,460 lymphocytes/culture and 257,060 lymphocytes/culture | embodied radioactivity (leucocytes from rats [5]; [8]): 7,384 cpm and 10,195 cpm and 7,709 cpm and 13,619 cpm | deaths (in words) ([6]; 3 g/kg): no death has been detected | Death rate ([6]; first experiment, 2.000 mg/kg oral): 0/10 | Death rate ([6]; first experiment, 3.000 mg/kg oral): 0/10 | Death rate ([6]; second experiment, 100 mg/kg oral): 0/6 | Death rate ([6]; second experiment, 500 mg/kg oral): 0/6 | Death rate ([6]; second experiment, 1,000 mg/kg oral): 0/6 | Death rate ([6]; second experiment, 2,000 mg/kg oral): 0/6 | Death rate ([6]; second experiment, 3,000 mg/kg oral): 0/6
